Laboratory results published in patent US8961930B2, “Isatin derivatives for use as in vivo imaging agents” (Imperial Innovations Limited, priority 2008, dated 2015).

What was measured:
Assay type in all cases: biochemical
[1] = biological target: T1, caspase 6 (Homo sapiens, UniProt P55212); test: Fluorimetric in vitro caspase inhibition assay (7-AMC), caspase 6; conditions: recombinant human caspase 6, 10 μM Ac-VEID-AMC; read-out: Caspase EC50 (nM), 1/6/8: caspase 6
T1 construct: purchased Biomol International, UK
T1 sequence (P55212 24-179 limits assumed): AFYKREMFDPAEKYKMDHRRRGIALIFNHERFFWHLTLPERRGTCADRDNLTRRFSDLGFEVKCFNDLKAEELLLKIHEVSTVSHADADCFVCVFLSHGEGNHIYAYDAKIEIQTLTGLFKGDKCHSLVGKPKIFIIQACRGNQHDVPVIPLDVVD
T1 sequence (P55212 194-293 limits assumed): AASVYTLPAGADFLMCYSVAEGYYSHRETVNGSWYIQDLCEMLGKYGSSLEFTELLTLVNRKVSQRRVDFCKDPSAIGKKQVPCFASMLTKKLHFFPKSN
Experimental: (§1) Recombinant human caspases-1, -3, -6, -7, and -8 and their peptide-specific substrates were purchased from Biomol International, UK Inhibition of the recombinant caspases by non-radioactive isatins was assessed using a fluorometric assay that measures the accumulation of a fluorogenic product, 7-amino-4-methylcoumarin (7-AMC). All assays were performed in 96-well plates at a volume of 200 μl per well. The assays were performed at 37° C. in an appropriate reaction buffer as described below for each caspase. For caspase 1, the buffer comprised of 0.1% CHAPS, 100 mM NaCl, 5 mM 2-mercaptoethanol, 100 mM HEPES (pH 7.4), 2 mM EDTA, 10% sucrose, and 10 μM of the peptide substrate Ac-YVAD-AMC. For caspase 3: 20 mM HEPES (pH 7.4), 10% sucrose, 100 mM NaCl, 0.1% CHAPS, 2 m, mM EDTA, and 10 μM Ac-DEVD-AMC. For caspase 6: 20 mM HEPES (pH 7.4), 10% sucrose, 100 mM NaCl, 0.1% CHAPS, 2 mM EDTA, and 10 μM Ac-VEID-AMC. For caspase 7: 20 mM HEPES (pH 7.4), 10% sucrose, 5 mM 2-mercaptoethanol, 100 mM NaCl, 0.1% CHAPS, 2 mM EDTA, 10 μM Ac-DEVD-AMC. For caspase 8: 20 mM HEPES (pH 7.4), 10% sucrose, 100 mM NaCl, 0.1% CHAPS, 2 mM EDTA, and 10 μM Ac-IETD-AMC. The Buffers contained non-radioactive isatins in DMSO at a final concentration of 500, 50, 5 μM; 500, 50, 5 nM; 500, 50, 5 pM; the final concentration of DMSO in all wells was 5% of the total volume. Recombinant caspases were used at 0.5 units per assay (˜500 pmol substrate converted per h). All reagents except the peptide substrate were pre-incubated for 10 min. The peptide substrate (final concentration 10 μM) was then added and the plate was incubated for a further 30 min; 30 min was selected after initial linearity study where reaction was assessed after 10, 30, 60 or 90 min. The 30 min time point was selected. Respective control wells contained all reaction components without enzyme. The amount of 7-AMC produced was measured on a fluorescence microplate reader (Victor2; Perkin-Elmer Life sciences) at excitation and emission wavelengths of 355 nm and 460 nm, respectively. The concentration of isatin that inhibits the caspase activity by 50% (EC50) was estimated by non-linear regression analysis using GraphPad Prism (Version 4.0 for Windows, GraphPad Software, San Diego Calif. USA). All the isatins were analyzed in duplicate; the assays were repeated once. Known compounds 13-16 were included as reference compounds.
(§2) The data are the average for two runs, each of which was duplicated, at nine concentrations ranging from 5 pM to 500 μM; the drug concentration required to inhibit each enzyme by 50% (EC50) was obtained from nonlinear regression analysis of the inhibition profiles.

[2] = biological target: T2, caspase 8 (Homo sapiens, UniProt Q14790); test: Fluorimetric in vitro caspase inhibition assay (7-AMC), caspase 8; conditions: recombinant human caspase 8, 10 μM Ac-IETD-AMC; read-out: Caspase EC50 (nM), 1/6/8: caspase 8
T2 construct: purchased Biomol International, UK
Experimental: as §1, §2

[3] = biological target: T3, caspase 7 (Homo sapiens, UniProt P55210); test: Fluorimetric in vitro caspase inhibition assay (7-AMC), caspase 7; conditions: recombinant human caspase 7, 10 μM Ac-DEVD-AMC
T3 construct: purchased Biomol International, UK
T3 sequence (P55210 24-198 limits assumed): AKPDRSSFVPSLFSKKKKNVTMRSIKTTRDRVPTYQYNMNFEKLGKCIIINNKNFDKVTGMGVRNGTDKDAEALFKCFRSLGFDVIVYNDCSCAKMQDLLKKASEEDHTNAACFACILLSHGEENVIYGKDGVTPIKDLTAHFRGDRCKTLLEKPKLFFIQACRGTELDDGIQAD
T3 sequence (P55210 207-303 limits assumed): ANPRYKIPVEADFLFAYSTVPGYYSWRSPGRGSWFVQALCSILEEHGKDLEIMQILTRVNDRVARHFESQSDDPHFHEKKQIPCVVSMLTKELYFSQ
Experimental: as §1, §2

[4] = biological target: T4, caspase 1 (Homo sapiens, UniProt P29466); test: Fluorimetric in vitro caspase inhibition assay (7-AMC), caspase 1; conditions: recombinant human caspase 1, 10 μM Ac-YVAD-AMC; read-out: Caspase EC50 (nM), 1/6/8: caspase 1
T4 construct: purchased Biomol International, UK
T4 sequence (P29466 120-297 limits assumed): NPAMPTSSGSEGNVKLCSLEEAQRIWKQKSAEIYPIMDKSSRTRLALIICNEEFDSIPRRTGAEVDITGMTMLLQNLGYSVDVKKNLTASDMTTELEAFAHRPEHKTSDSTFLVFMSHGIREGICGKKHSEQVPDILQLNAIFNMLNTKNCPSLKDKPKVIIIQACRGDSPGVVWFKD
T4 sequence (P29466 317-404 limits assumed): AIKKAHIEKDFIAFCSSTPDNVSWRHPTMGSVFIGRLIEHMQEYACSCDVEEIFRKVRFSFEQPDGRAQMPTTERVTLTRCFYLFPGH
Experimental: as §1, §2

T2 sequence (Q14790 217-374 limits assumed): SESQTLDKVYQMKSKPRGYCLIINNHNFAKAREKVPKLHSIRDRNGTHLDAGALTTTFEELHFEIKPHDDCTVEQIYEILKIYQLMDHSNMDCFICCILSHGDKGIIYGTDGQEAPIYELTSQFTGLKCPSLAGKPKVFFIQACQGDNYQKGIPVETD
T2 sequence (Q14790 385-479 limits assumed): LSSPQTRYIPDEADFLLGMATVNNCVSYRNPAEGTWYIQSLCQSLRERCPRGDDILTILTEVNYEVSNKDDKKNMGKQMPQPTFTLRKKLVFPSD

Row | Compound | EC50 [1] [nM] | EC50 [2] [nM] | EC50 [3] [nM] | EC50 [4] [nM]
1 | O=C1C(=O)N(Cc2ccc(F)cc2)c2ccc(S(=O)(=O)N3CCC[C@H]3COc3cccc(F)c3)cc21 [Compound 1, (S)-1-(4-Fluorobenzyl)-5-(2-(3-fluorophenoxymethyl)-pyrrolidine-1-sulfonyl)isatin] | > 5000 | > 5000 | 13.5 | > 5000
2 | O=C1C(=O)N(Cc2ccc(F)cc2)c2ccc(S(=O)(=O)N3CCC[C@H]3COc3ccc(F)cc3F)cc21 [Compound 2, (S)-1-(4-Fluorobenzyl)-5-(2-(2,4-difluorophenoxymethyl)-pyrrolidine-1-sulfonyl)isatin] | > 5000 | > 5000 | 13 | > 5000
3 | O=C1C(=O)N(Cc2ccc(F)cc2)c2ccc(S(=O)(=O)N3CCC[C@H]3COC3CCOCC3)cc21 [Compound 4, (S)-1-(4-Fluorobenzyl)-5-(2-(tetrahydro-2H-pyran-4-yloxymethyl)-pyrrolidine-1-sulfonyl)isatin] | > 5000 | > 5000 | 14.4 | > 5000
4 | O=C1C(=O)N(Cc2ccc(F)cc2)c2ccc(S(=O)(=O)N3CCC[C@H]3COc3ccncn3)cc21 [Compound 5, (S)-1-(4-Fluorobenzyl)-5-(2-(pyrimidin-4-yloxymethyl)-pyrrolidine-1-sulfonyl)isatin] | > 5000 | > 5000 | 2.3 | > 5000
5 | O=C1C(=O)N(Cc2cn(CCF)nn2)c2ccc(S(=O)(=O)N3CCC[C@H]3COc3ccccc3)cc21 [Compound 10, (S)-1-((1-(2-Fluoroethyl)-1H-[1,2,3]-triazol-4-yl)methyl)-5-(2-phenoxymethyl-pyrrolidine-1-sulfonyl)isatin] | > 5000 | > 5000 | 28.2 | > 5000
6 | O=C1C(=O)N(Cc2cn(CCF)nn2)c2ccc(S(=O)(=O)N3CCC[C@H]3COc3ccc(F)cc3F)cc21 [Compound 11, (S)-1-((1-(2-Fluoroethyl)-1H-[1,2,3]-triazol-4-yl)methyl)-5-(2(2,4-difluorophenoxymethyl)-pyrrolidine-1-sulfonyl)isatin] | > 5000 | > 5000 | 2.2 | > 5000
7 | O=C1C(=O)N(Cc2ccccc2)c2ccc(S(=O)(=O)N3CCC[C@H]3COc3ccccc3)cc21 [Compound 13, (S)-1-benzyl-5-(2-phenoxymethyl-pyrrolidine-1-sulfonyl)isatin, reference compound] | > 5000 | > 5000 | 29.4 | > 5000
8 | O=C1C(=O)N(Cc2ccc(I)cc2)c2ccc(S(=O)(=O)N3CCC[C@H]3COc3ccccc3)cc21 [Compound 14, (S)-1-(4-iodobenzyl)-5-(2-phenoxymethyl-pyrrolidine-1-sulfonyl)isatin, reference compound] | > 5000 | > 5000 | 25.3 | > 5000
9 | O=C1C(=O)N(Cc2ccc(F)cc2)c2ccc(S(=O)(=O)N3CCC[C@H]3COc3ccccc3)cc21 [Compound 15, (S)-1-(4-fluorobenzyl)-5-(2-phenoxymethyl-pyrrolidine-1-sulfonyl)isatin, reference compound] | > 5000 | > 5000 | 19.8 | > 5000
10 | O=C1C(=O)N(Cc2ccc(F)cc2)c2ccc(S(=O)(=O)N3CCCC3)cc21 [Compound 16, 1-(4-Fluorobenzyl)-5-(pyrrolidine-1-sulfonyl)isatin, reference compound] | > 5000 | > 5000 | 78.6 | > 5000
11 | O=C1C(=O)N(Cc2ccc(F)cc2)c2ccc(S(=O)(=O)N3CCC[C@H]3COc3ccc(F)cc3)cc21 [Compound 22, (S)-1-(4-Fluorobenzyl)-5-(2-(4-fluorophenoxymethyl)-pyrrolidine-1-sulfonyl)isatin] | > 5000 | > 5000 | 8 | > 5000
12 | C#CCN1C(=O)C(=O)c2cc(S(=O)(=O)N3CCC[C@H]3COc3ccc(F)cc3F)ccc21 [Compound 25, (S)-1-(2-Propynyl)-5-(2-(2,4-difluorophenoxymethyl)-pyrrolidine-1-sulfonyl)isatin] | > 5000 | > 5000 | 60.4 | > 5000
